The test system of one assay is K328M-Wee1-luciferase. Put plainly: Wee1-luciferase assay (stabilization of K328M-Wee1-luciferase). It counts as cell-based. The following applies: for % Inhibition, Wee1 Degradation: at 250 nM, reported relative to SR-1277 = 100%; for EC50: read-out: Wee1 Stabilization. An excerpt: Steady-state level of K328M-Wee1-Luciferase (K328M-Wee1-Luc) was divided by Luciferase level (Luc) and plotted.
Similar assays have previously been described; PubChem AID 1807.

For a further assay, the target named is T1, FLT3 (Homo sapiens, UniProt P36888).
T1 construct: Reaction Biology Corporation (contract assay)
T1 sequence (P36888 27-993): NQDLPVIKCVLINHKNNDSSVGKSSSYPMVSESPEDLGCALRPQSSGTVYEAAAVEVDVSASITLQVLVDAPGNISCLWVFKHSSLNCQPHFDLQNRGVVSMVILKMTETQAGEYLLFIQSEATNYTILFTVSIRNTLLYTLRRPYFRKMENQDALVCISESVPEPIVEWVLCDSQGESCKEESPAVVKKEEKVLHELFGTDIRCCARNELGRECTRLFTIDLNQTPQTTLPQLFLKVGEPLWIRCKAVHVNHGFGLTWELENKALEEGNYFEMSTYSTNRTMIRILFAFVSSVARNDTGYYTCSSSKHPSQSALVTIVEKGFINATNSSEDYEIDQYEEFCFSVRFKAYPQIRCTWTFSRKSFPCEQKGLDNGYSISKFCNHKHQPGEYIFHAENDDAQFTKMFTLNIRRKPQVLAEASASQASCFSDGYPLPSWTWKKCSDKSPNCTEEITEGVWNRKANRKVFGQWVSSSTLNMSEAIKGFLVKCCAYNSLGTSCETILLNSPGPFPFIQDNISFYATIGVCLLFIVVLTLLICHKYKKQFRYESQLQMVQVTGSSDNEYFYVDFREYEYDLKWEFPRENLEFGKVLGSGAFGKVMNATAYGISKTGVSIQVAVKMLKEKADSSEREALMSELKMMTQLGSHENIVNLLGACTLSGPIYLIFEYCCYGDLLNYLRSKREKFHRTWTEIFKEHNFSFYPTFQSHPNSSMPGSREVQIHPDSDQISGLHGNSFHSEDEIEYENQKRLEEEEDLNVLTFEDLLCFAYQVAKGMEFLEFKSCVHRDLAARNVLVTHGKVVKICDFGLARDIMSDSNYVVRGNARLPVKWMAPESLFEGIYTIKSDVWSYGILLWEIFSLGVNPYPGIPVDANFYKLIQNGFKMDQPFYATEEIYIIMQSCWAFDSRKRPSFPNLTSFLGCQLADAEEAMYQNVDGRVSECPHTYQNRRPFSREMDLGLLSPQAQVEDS
Description: In vitro kinase assay, FLT3 (Reaction Biology Corporation). The class given is biochemical. Conditions: determined by Reaction Biology Corporation; read-out: IC50 FLT3. On the procedure:
(§1) Compounds were tested in 10-dose IC50 mode with 3-fold serial dilution starting at 50 μM. […] Reactions were carried out at 10 μM ATP. Average and standard deviations of reactions carried out in triplicate are shown.
(§2) In vitro kinase assay to detect CK1 or FLT3 activity: CK1 and FLT3 assays as well as complete kinase profile of 296 kinases was performed by Reaction Biology Corporation. For FLT3 20 μM final Abltide was used, sequence: [[…]]. For CK1 (all isoforms) 20 μM CK1 tide was used, sequence: [KRRRAL[pS]VASLPGL] in a standard kinase assay with ^32P-ATP and purified kinase. Incorporation of ^32P-ATP into the peptide was measured after a filter-binding assay. In-house CK1d inhibition assays were performed using a standard homogenous time-resolved fluorescence resonance energy transfer (TR-FRET) format in 50 mM Hepes, pH 7.0, 2.5 mM MgCl2, 0.1 mg/ml bovine serum albumin, 1 mM DL-dithiothreitol, 0.01% Triton X-100 (all from Sigma-Aldrich). Briefly, the CK1δ substrate (DEKTDDE, containing CK1 consensus sequence; 4 μL of a 500 nM stock solution) is labeled with a small Ulight acceptor dye (PerkinElmer). In the presence of 10 μL of 10 nM CK1δ, the Ulight peptide is phosphorylated at a single amino acid that is specifically recognized by a europium chelate (Eu)-labeled phosphospecific antibody. Assays were performed in the presence of 2 μL of compound at different (measured) concentrations, and reactions were stopped by adding 10 μL of 4 nM Eu-anti-p-Topo-IIa (PerkinElmer) in Lance Detection Buffer (Perkin Elmer). Upon excitation of the Eu-labeled antibody, energy is transferred to the acceptor dye resulting in the emission of detected light at 665 nm.

In another assay the target is CK1δ (Homo sapiens, UniProt P48730). Put plainly: In vitro kinase assay, CK1d, 32P-ATP filter binding (Reaction Biology Corporation). The class given is biochemical. Conditions: footnote a: determined by Reaction Biology Corporation; read-out: IC50 CK1d. On the procedure: as §1, §2
In a further assay the test system is A498 (renal). Put plainly: NCI Dose Growth Inhibition assay (NCI-60). The class given is cell-based. Conditions: Homo sapiens; A498 (renal); read-out: GI50. How it is done: (§3) Table 3, below, illustrates the activity of some of the compounds of the present invention in the National Cancer Institute's Dose Growth Inhibition assay against several human tumor cell lines selected from the NCI-60 panel.
(§4) NCI-60 Cancer Cell Line Screening was performed by the National Cancer Institute, using the procedures described on their website (http://dtp.nci.nih.gov/branches/btb/ivelsp.html)

The test system of the next assay is COLO 205 (colon). Description: NCI Dose Growth Inhibition assay (NCI-60). It counts as cell-based. The following applies: Homo sapiens; COLO 205 (colon); read-out: GI50. On the procedure:
as §3, §4

The test system of a further assay is MDA-MB-468 (breast). Description: NCI Dose Growth Inhibition assay (NCI-60). It counts as cell-based. Conditions: Homo sapiens; MDA-MB-468 (breast); read-out: GI50. On the procedure: as §3, §4
A further assay has as its system RXF393 (renal). Description: NCI Dose Growth Inhibition assay (NCI-60). The class given is cell-based. The following applies: Homo sapiens, RXF 393; RXF393 (renal); read-out: GI50. How it is done:
as §3, §4

For a further assay, the system named is SNB-75 (CNS). Description: NCI Dose Growth Inhibition assay (NCI-60). Conditions: Homo sapiens; SNB-75 (CNS); read-out: GI50. The class given is cell-based. How it is done: as §3, §4
In a further assay the test system is UACC-62 (melanoma). Description: NCI Dose Growth Inhibition assay (NCI-60). It counts as cell-based. The following applies: Homo sapiens; UACC-62 (melanoma); read-out: GI50. On the procedure: as §3, §4

Where “and” joins values, the source holds several entries; their conditions need not be identical. Identical values can stand only once.

Chain of CK1δ (P48730 whole entry): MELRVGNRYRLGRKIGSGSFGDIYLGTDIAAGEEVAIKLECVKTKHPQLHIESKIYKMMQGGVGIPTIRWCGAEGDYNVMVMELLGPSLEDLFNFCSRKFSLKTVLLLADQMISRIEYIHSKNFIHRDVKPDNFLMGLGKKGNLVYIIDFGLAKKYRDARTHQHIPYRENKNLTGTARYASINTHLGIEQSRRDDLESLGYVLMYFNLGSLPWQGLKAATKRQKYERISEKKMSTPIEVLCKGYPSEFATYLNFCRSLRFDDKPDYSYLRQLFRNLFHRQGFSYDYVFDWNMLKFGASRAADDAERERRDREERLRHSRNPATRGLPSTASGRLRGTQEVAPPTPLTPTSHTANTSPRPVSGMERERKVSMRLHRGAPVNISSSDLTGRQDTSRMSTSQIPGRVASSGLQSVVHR

Broadly, the IC50 is the point on the concentration scale where inhibition reaches its midpoint. For the molecule `FC(F)(F)c1cccc2[nH]c(CNc3nc(N4CCOCC4)nc4c3ncn4-c3ccsc3)nc12` [SR-1272], in the assay with K328M-Wee1-luciferase, the “% Inhibition, Wee1 Degradation” value amounted to 10.8%. The half-maximal inhibitory concentration (IC50) on FLT3 was found to be 262 nM; at CK1δ, 128 nM.
For `FC(F)(F)c1ccc2[nH]c(CNc3nc(N4CCOCC4)nc4c3ncn4-c3ccsc3)nc2c1` [SR-1273] the same measures were 46.3%, 509 nM and 13 nM.
Regarding `Clc1ccc2[nH]c(CNc3nc(N4CCOCC4)nc4c3ncn4-c3ccsc3)nc2c1` [SR-1274], in the assay on K328M-Wee1-luciferase, the “% Inhibition, Wee1 Degradation” value was found to be 101.2% and the EC50 stood at 164 nM. The IC50 at FLT3 turned out to be 301 nM. For the same molecule, the 50% inhibitory concentration (IC50) at CK1δ came to 105 nM.
On to `Fc1ccc2[nH]c(CNc3nc(N4CCOCC4)nc4c3ncn4-c3ccsc3)nc2c1` [SR-1275], for which the “% Inhibition, Wee1 Degradation” value in the assay with K328M-Wee1-luciferase was 81.4%. Further, the results for the IC50 at FLT3 and on CK1δ were 79 nM and 50 nM, respectively.
For `N#Cc1ccc2[nH]c(CNc3nc(N4CCOCC4)nc4c3ncn4-c3ccsc3)nc2c1` [SR-1276] the same measures were 85.9%, 62 nM and 11 nM.
Taken in the same sequence, the figures for `O=[N+]([O-])c1ccc2[nH]c(CNc3nc(N4CCOCC4)nc4c3ncn4-c3ccsc3)nc2c1` [SR-1278] were 18.7%, 240 nM and 21 nM.
As for `COc1ccc2[nH]c(CNc3nc(N4CCOCC4)nc4c3ncn4-c3ccsc3)nc2c1` [SR-1279], in the assay on K328M-Wee1-luciferase, the “% Inhibition, Wee1 Degradation” value is 79.5%. For the same molecule, the IC50 was determined as 14 nM on FLT3 and 17 nM at CK1δ.
For `c1ccc2cc3[nH]c(CNc4nc(N5CCOCC5)nc5c4ncn5-c4ccsc4)nc3cc2c1` [SR-1280], in the assay with K328M-Wee1-luciferase, the “% Inhibition, Wee1 Degradation” value stood at 48.3%. Moreover, the half-inhibitory concentration (IC50) at FLT3 is 975 nM; on CK1δ it was 129 nM.
Consider `CCOC(=O)c1cccc2[nH]c(CNc3nc(N4CCOCC4)nc4c3ncn4-c3ccsc3)nc12` [SR-1282], for which the “% Inhibition, Wee1 Degradation” value in the assay on K328M-Wee1-luciferase was found to be 97.3%. Moreover, in the assay with K328M-Wee1-luciferase, the EC50 was found to be 207 nM. In addition, the IC50 is 548 nM on FLT3 and 361 nM at CK1δ.
Taken in the same sequence, the figures for `CC(C)n1cnc2c(NCc3nc4c([N+](=O)[O-])cccc4[nH]3)nc(N3CCOCC3)nc21` [SR-1284] were 111.2%, 201 nM, 28000 nM and 815 nM.
Turning to `FC(F)(F)c1cc(Br)c2nc(CNc3nc(N4CCOCC4)nc4c3ncn4-c3ccsc3)[nH]c2c1` [SR-1285], the “% Inhibition, Wee1 Degradation” value in the assay on K328M-Wee1-luciferase turned out to be 13.4%. Besides, the IC50 is 4740 nM on FLT3 and 522 nM at CK1δ.
Taken in the same sequence, the figures for `c1ccc2[nH]c(CNc3nc(N4CCNCC4)nc4c3ncn4-c3ccsc3)nc2c1` [SR-1292] were 14.5%, 16 nM and 3 nM.
Taken in the same sequence, the figures for `CN1CCN(c2nc(NCc3nc4ccccc4[nH]3)c3ncn(-c4ccsc4)c3n2)CC1` [SR-1294] were 14.1%, 68 nM and 11 nM.
As for `Cn1c(CNc2nc(N3CCOCC3)nc3c2ncn3-c2ccsc2)nc2ccccc21` [SR-2001], the “% Inhibition, Wee1 Degradation” value with K328M-Wee1-luciferase is reported as 1.7%. The IC50 at FLT3 came to 125 nM; on CK1δ, 22 nM.
Turning to `O=[N+]([O-])c1cccc2[nH]c(CNc3nc(N4CCOCC4)nc4c3ncn4-c3ccoc3)nc12` [SR-2007], the “% Inhibition, Wee1 Degradation” value with K328M-Wee1-luciferase was 81.1%. For the same molecule, the half-inhibitory concentration (IC50) at FLT3 was 345 nM; on CK1δ it was 18 nM and 19 nM.
`c1ccc2[nH]c(CNc3nc(N4CCOCC4)nc4c3ncn4C3CCCC3)nc2c1` [SR-2149]: the “% Inhibition, Wee1 Degradation” value in the assay with K328M-Wee1-luciferase worked out at 6.1%. Also, the concentration for half-maximal inhibition (IC50) at FLT3 was 401 nM; on CK1δ, 46 nM.
For `O=[N+]([O-])c1cccc2[nH]c(CNc3nc(N4CCOCC4)nc4c3ncn4-c3ccc(F)cc3)nc12` [SR-2362], the IC50 on CK1δ stood at 1130 nM.
`CS(=O)(=O)c1ccc2[nH]c(CNc3nc(N4CCOCC4)nc4c3ncn4-c3ccsc3)nc2c1` [SR-2797]: the half-inhibitory concentration (IC50) at FLT3 turned out to be 69 nM; at CK1δ, 10 nM.
For the molecule `CS(=O)(=O)c1cccc2[nH]c(CNc3nc(N4CCOCC4)nc4c3ncn4-c3ccsc3)nc12` [SR-2805], the half-maximal inhibitory concentration (IC50) was 57 nM on FLT3 and 16 nM at CK1δ.
Taken in the same sequence, the figures for `COc1ccc2[nH]c(CNc3nc(N4CCN(C)CC4)nc4c3ncn4-c3ccoc3)nc2c1` [SR-2848] were 298 nM and 29 nM.
Usually GI50 stands for the concentration giving 50% growth inhibition. Regarding `CN1CCN(c2nc(NCc3nc4cc(Cl)ccc4[nH]3)c3ncn(-c4ccoc4)c3n2)CC1` [SR-2849], the IC50 on FLT3 came out at 182 nM; at CK1δ, 11 nM. Also, the GI50 was 113 nM in the assay with A498 (renal); 25 nM with COLO 205 (colon); less than 10 nM in the assay on MDA-MB-468 (breast); 17 nM with RXF393 (renal); 19 nM in the assay on SNB-75 (CNS); 130 nM in the assay with UACC-62 (melanoma).
As for `Clc1ccc2[nH]c(CNc3nc(N4CCOCC4)nc4c3ncn4-c3ccoc3)nc2c1` [SR-2850], the IC50 on FLT3 is 129 nM; at CK1δ, 23 nM.
For `CN1CCN(c2nc(NCc3nc4cc(F)ccc4[nH]3)c3ncn(-c4ccoc4)c3n2)CC1` [SR-2866] the same measures were 216 nM and 20 nM.
Regarding `Clc1ccc2[nH]c(CNc3nc(N4CCNCC4)nc4c3ncn4-c3ccoc3)nc2c1` [SR-2889], the values for the half-maximal inhibitory concentration (IC50) on FLT3 and on CK1δ were 82 nM and 5 nM, respectively. The GI50 with A498 (renal) is 24 nM; in the assay on COLO 205 (colon), less than 10 nM; in the assay on MDA-MB-468 (breast), less than 10 nM; in the assay with RXF393 (renal), less than 10 nM; in the assay with SNB-75 (CNS), less than 10 nM; with UACC-62 (melanoma), 17 nM.
In the case of `Fc1cccc(-n2cnc3c(NCc4nc5cc(Cl)ccc5[nH]4)nc(N4CCNCC4)nc32)c1` [SR-2890], the IC50 on FLT3 came out at 809 nM; on CK1δ, 4 nM. The GI50 is 207 nM with A498 (renal); 29 nM in the assay on COLO 205 (colon); 12 nM in the assay with MDA-MB-468 (breast); 41 nM in the assay on RXF393 (renal); 46 nM with SNB-75 (CNS); 182 nM with UACC-62 (melanoma).

The values are drawn from patent US9493464B2, “Wee1 degradation inhibitors” (The Scripps Research Institute, priority 2012, dated 2016).
